This note sets out measurements from PMC3467217, “A Potent Class of GPR40 Full Agonists Engages the EnteroInsular Axis to Promote Glucose Control in Rodents” (PLoS ONE, 2012).

For one assay, the system named is mouse islets. The assay can be described thus: Mouse islet perifusion assay. It counts as cell-based. Particulars: 10 µM compound. On the procedure: Mouse islets were isolated and tested for stimulation of GSIS as described. Human islets were purchased from Prodo labs or were obtained from the National Institutes of Health and Juvenile Diabetes Research Foundation supported Islet Cell Resource Consortium (http://icr.coh.org). Islet inositol phosphate assays were performed on islets cells that had been dispersed with trypsin. 10,000 islet cells were plated/well of a 96-well plate and were loaded with ^3H-myo-inositol (0.5 µCi/well) in RPMI overnight prior to treatment. The next day, response to different stimuli was tested in HBSS containing 10 mM LiCl and 0.1% HSA (w/v) for 1 hour at 37°C. Accumulated ^3H-inositol phosphate was measured after capture to SPA beads. Islet perifusion experiments were performed on mouse islets loaded into a Brandel Suprafusion system. Twenty islets were size-matched and loaded per perifusion chamber. Islets were perifused in KRBH containing, sequentially, 3 mM glucose, then 3 mM glucose containing 10 µM drug, 16.7 mM glucose containing 10 µM drug and finally returned to 3 mM glucose containing 10 µM drug. Insulin was measured using an insulin ELISA kit (Alpco). Fetal rat intestinal cells were isolated from e19-day old fetuses of pregnant Sprague-Dawley rats. Briefly, fetal intestines were isolated and digested in HBSS buffer containing 0.5 mg/ml collagenase (Sigma), 0.5 mg/ml of hyaluronidase (Sigma) and 0.05 mg/ml of deoxyribonuclease I (Roche) for 30 minutes at 37°C. The digestion was quenched using HBSS containing 15% FBS. Fetal rat intestinal cells were washed and cultured overnight in DMEM containing 5% FBS in 96-well plates. To test for secretion of GLP-1 and GIP in response to treatments, we incubated cells for 1 hour with treatments in KRBH buffer containing 0.05% BSA (w/v). GLP-1 and GIP1 secreted into the media was measured using ELISA kits specific for GLP-1 (Linco) or GIP (Millipore).

The target of assay [1] is T1, GPR40 (Homo sapiens, UniProt O14842).
T1 construct: expressed in transfected cells; host or cells: CHO cell line stably expressing GPR40 and aequorin
T1 sequence (O14842 whole entry): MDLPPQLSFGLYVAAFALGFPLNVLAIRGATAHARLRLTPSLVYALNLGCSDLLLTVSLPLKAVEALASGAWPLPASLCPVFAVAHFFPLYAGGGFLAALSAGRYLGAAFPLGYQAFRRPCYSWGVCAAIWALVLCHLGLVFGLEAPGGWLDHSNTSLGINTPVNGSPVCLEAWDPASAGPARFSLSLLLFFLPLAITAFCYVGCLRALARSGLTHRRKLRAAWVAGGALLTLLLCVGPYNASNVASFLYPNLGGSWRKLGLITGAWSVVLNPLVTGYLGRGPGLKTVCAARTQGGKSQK
The assay can be described thus: Competition binding with 3H-AM-1638 on A9_GPR40 membranes. Particulars: unlabelled competitor. On the procedure: (§1) GPR40 aequorin, plasmid titration, and inositol phosphate assays were performed as described. For aequorin assays, in addition to transient transfection of GPR40 into CHO cells, a CHO cell line stably expressing both GPR40 and aequorin was generated. GLUTag cells were obtained under a license from Dr. Daniel Drucker, University of Toronto. Competition binding experiments were performed using membranes prepared from A9_GPR40 cells. […] Competition binding assays were carried out in 20 mM Hepes pH 7.5, 5 mM MgCl2, 100 mM NaCl and 0.1% (w/v) free fatty acid BSA and bound radioligand was collected on 96-well GF/C filter plates.

The subject of another assay is NONcNZO10/LtJ mice. Briefly: OGTT in NONcNZO10/LtJ type 2 diabetic mice. It is filed as in vivo, mouse. On the procedure: NONcNZO10/LtJ mice retain an intact leptin pathway but contain polygenic defects contributing to moderate and mature onset obesity and diabetes, [31].
(§2) All procedures on animals were approved by the Amgen San Francisco Institutional Animal Care and Use Committee (approved protocols #11–04 and #2007–00106). The Amgen San Francisco vivarium is an AAALAC accredited facility. Animals were housed under a 12-h light, 12-h dark cycle (lights-on 0600 h and lights-off 1800 h) and were allowed ad libidum access to chow and water. The HF/STZ mice were established as previously described. Briefly, C57BL/6j mice (Jackson labs) at 4 weeks of age were fed a high-fat diet (BioServ S1850, 35% fat) for 3-weeks and then injected with 95 mg/kg streptozotocin (Sigma) ip to induce beta cell dysfunction. The animals continued on the same high fat diet for 3–6 additional weeks. Animals were then randomized into treatment groups based on fasting blood glucose and insulin measures. NONcNZO10/LtJ (RCS10) male mice (Jackson labs) were used at 12-weeks of age and randomized for treatment based on fasting glucose levels. For OGTT experiments, drugs were formulated in 1% HPMC, 10% HPbCD, 1% Tween-80 and dosed via oral gavage. Glucose was administered at 2 g/kg 1-hour post drug dose by oral gavage.
For all glucose tolerance tests, glucose and insulin measurements were taken from tail vein samples at various time-points. Blood glucose values were measured on an Accu-Chek glucometer (Roche Diagnostics), while insulin levels were determined using an ELISA (Alpco).

A further assay deals with HF/STZ mice. The assay can be described thus: Single oral dose without glucose challenge in HF/STZ mice: GLP-1, insulin, glucose, GIP. It counts as in vivo, mouse. Particulars: HF/STZ mice, single oral dose. On the procedure:
The increase in insulin secretion by GPR40 agonists is due to direct stimulation of GPR40 receptors on pancreatic β-cells, but may also be derived from stimulation of the gut peptides GLP-1 and GIP, which subsequently act on the GLP-1 and GIP G protein-coupled receptors found on pancreatic β-cells. […] No glucose challenge was performed in order to isolate the effects of the compounds alone.
as §2

The target of the next assay is PPAR alpha (Homo sapiens, UniProt Q07869). Briefly: PPAR-alpha luciferase reporter assay. It counts as cell-based. Particulars: concentrations up to 10 µM.
PPAR alpha, sequence (Q07869 whole entry, species assumed): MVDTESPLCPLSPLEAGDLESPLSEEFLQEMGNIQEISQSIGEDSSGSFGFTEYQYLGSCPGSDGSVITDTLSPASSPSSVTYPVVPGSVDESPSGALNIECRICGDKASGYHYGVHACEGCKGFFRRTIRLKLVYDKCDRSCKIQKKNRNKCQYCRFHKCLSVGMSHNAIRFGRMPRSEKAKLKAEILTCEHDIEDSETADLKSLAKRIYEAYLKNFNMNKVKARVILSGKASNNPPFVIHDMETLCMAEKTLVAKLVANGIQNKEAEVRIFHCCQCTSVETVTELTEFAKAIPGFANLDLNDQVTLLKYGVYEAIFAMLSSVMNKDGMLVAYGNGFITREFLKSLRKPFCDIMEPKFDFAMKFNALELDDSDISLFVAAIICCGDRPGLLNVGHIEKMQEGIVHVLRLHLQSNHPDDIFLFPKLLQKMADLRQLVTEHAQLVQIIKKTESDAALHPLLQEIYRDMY
Another assay has as its target PPAR gamma (Homo sapiens, UniProt P37231). The assay can be described thus: PPAR-gamma luciferase assay. The settings on record: concentrations up to 10 µM. It counts as cell-based. An excerpt: (§3) (A) GPR41 (FFAR3) aequorin assay. GPR41 was force coupled to the calcium signaling pathway by co-transfecting the cells with Gqmyri5. (B) GPR43 (FFAR2) aequorin assay. The short chain fatty acid propionate acts as a natural agonist ligand for GPR41 and GPR43. (C) GPR120 aequorin assay. The unsaturated fatty acids α-LNN and DHA act as natural agonist ligands for GPR120. (D) PPAR-gamma luciferase assay using the thiazolidinedione rosiglitazone as a positive control. […] (TIF) Click here for additional data file.

Assay [2] concerns fetal rat intestinal cells. The assay can be described thus: GLP-1 secretion assay with fetal rat intestinal cells. It counts as cell-based. Particulars: 1 hour. From the text: Increased GLP-1 and GIP would be expected to have additional benefits in type 2 diabetics. […] We tested for potential effects on incretin secretion in vitro by using cells isolated from fetal rat intestines.
Mouse islets were isolated and tested for stimulation of GSIS as described. Human islets were purchased from Prodo labs or were obtained from the National Institutes of Health and Juvenile Diabetes Research Foundation supported Islet Cell Resource Consortium (http://icr.coh.org). Islet inositol phosphate assays were performed on islets cells that had been dispersed with trypsin. 10,000 islet cells were plated/well of a 96-well plate and were loaded with ^3H-myo-inositol (0.5 µCi/well) in RPMI overnight prior to treatment. The next day, response to different stimuli was tested in HBSS containing 10 mM LiCl and 0.1% HSA (w/v) for 1 hour at 37°C. Accumulated ^3H-inositol phosphate was measured after capture to SPA beads. Islet perifusion experiments were performed on mouse islets loaded into a Brandel Suprafusion system. Twenty islets were size-matched and loaded per perifusion chamber. […] Insulin was measured using an insulin ELISA kit (Alpco). […] GLP-1 and GIP1 secreted into the media was measured using ELISA kits specific for GLP-1 (Linco) or GIP (Millipore).

The target in the next assay is T2, GPR43 (FFAR2) (Homo sapiens, UniProt O15552).
T2 construct: expressed in transfected cells
T2 sequence (O15552 whole entry, species assumed): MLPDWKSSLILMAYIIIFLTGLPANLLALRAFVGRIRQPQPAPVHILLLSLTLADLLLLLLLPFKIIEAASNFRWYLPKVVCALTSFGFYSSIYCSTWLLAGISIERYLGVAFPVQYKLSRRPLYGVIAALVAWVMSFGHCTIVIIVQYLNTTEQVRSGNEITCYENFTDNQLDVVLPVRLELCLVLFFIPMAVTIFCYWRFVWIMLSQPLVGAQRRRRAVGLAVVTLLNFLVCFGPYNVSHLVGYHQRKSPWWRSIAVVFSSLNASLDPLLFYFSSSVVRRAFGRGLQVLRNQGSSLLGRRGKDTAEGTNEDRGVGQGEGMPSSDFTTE
Briefly: GPR43 aequorin assay. It counts as cell-based. Particulars: up to 10 µM.
Text: as §3

For assay [3], the target named is T1, GPR40. Briefly: Aequorin Ca2+ flux assay in CHO cell line stably expressing GPR40. It is filed as cell-based. Particulars: CHO-GPR40 stable cell line. On the procedure: Since GPR40 agonists with greater intrinsic activity may have improved anti-diabetic properties, we focused our efforts to discover potent synthetic full agonists.
as §1

For a further assay, the target named is T3, GPR41 (FFAR3) (Homo sapiens, UniProt O14843).
T3 construct: expressed in transfected cells
T3 sequence (O14843 whole entry, species assumed): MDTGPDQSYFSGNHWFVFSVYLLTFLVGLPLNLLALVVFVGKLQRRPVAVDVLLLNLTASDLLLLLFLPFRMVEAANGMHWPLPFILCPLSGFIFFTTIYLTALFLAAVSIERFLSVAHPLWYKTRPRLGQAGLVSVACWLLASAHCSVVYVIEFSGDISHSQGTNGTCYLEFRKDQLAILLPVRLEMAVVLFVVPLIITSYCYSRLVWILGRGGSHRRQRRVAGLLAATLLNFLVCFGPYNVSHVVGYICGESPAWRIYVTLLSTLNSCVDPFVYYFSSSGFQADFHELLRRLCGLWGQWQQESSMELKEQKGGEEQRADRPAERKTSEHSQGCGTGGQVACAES
Briefly: GPR41 aequorin assay. It counts as cell-based. The settings on record: up to 10 µM.
Text: as §3

For another assay, the target named is T4, GPR120 (Homo sapiens, UniProt Q5NUL3).
T4 construct: expressed in transfected cells
T4 sequence (Q5NUL3 whole entry, species assumed): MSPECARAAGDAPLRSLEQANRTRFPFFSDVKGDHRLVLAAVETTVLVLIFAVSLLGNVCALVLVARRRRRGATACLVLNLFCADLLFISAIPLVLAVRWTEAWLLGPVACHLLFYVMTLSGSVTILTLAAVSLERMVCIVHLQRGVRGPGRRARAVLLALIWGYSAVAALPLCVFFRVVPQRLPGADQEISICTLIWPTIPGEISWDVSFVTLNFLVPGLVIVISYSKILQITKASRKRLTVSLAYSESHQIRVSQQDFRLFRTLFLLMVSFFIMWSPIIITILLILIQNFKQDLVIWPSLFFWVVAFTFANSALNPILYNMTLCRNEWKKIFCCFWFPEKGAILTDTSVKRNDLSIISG
Briefly: GPR120 aequorin assay. It counts as cell-based. The settings on record: weak activity.
Text: as §3

PPAR gamma, sequence (P37231 whole entry): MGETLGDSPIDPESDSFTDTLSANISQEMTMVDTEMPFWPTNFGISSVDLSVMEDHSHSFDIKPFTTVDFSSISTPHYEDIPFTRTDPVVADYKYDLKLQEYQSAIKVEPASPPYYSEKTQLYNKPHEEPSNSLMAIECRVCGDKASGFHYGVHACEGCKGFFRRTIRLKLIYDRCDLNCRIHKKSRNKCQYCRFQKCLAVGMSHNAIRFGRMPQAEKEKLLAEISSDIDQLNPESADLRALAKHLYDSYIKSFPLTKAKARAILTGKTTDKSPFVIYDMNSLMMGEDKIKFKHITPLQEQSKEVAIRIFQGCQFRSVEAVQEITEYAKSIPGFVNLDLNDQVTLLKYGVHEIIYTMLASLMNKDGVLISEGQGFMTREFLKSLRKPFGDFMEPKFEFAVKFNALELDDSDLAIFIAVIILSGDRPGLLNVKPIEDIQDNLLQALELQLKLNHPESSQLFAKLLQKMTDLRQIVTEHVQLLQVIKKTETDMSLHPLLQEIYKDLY

In the case of `COc1ccc(F)c(-c2ccc(COc3cccc([C@@H](CC(=O)O)C4CC4)c3)cc2C2=CCCC2(C)C)c1` [AM-1638], the “insulin stimulation compared to vehicle control” value with mouse islets (3 mM glucose) is listed as “neither AMG 837 nor AM-1638 stimulated insulin”. Moreover, in the assay on mouse islets (16.7 mM glucose), the insulin secretion result is “increased both first and second phase insulin secretion”. Besides, at GPR40 [1], the “displacement of 3H-AM-1638” value was “displaced ^3H-AM-1638”. Further, the “GIP levels vs vehicle” value with NONcNZO10/LtJ mice (60 mg/kg, 15 minutes after glucose challenge) is listed as “did not reach statistical significance”. Besides, the “insulin and GLP-1 levels 15 minutes after glucose challenge” value in the assay on NONcNZO10/LtJ mice (60 mg/kg, vs vehicle and baseline) is “significantly increased”. Further, in the assay on NONcNZO10/LtJ mice (OGTT, 60mg/kg), the “Glucose AUC change as printed in figure 5B” value is -26%. The “Glucose AUC reduction compared to vehicle” value in the assay on NONcNZO10/LtJ mice (OGTT, single 60 mg/kg oral dose) came to 26%. Moreover, the “glucose excursions during OGTT” value with NONcNZO10/LtJ mice (single 60 mg/kg oral dose) is listed as “almost complete suppression”. The GIP secretion entry with HF/STZ mice is listed as “stimulated secretion of GIP”. Also, in the assay on HF/STZ mice (no glucose challenge), the blood glucose levels entry is on record as “stabilized blood glucose levels”. For the same compound, the “plasma GLP-1 and insulin levels” value in the assay with HF/STZ mice (no glucose challenge, compared with AMG 837) was “markedly greater increase”. The “activation of PPAR alpha” value on PPAR alpha is “did not activate”. In addition, on PPAR gamma, the “activation of PPAR gamma” value was “did not activate”. For the same compound, in assay [2], the “GLP-1 release in vitro” value is listed as “could stimulate GLP-1 release”. On GPR43 (FFAR2), the “activation of GPR43 (FFAR2)” value is on record as “did not activate”. Also, the EC50 was 0.16 ± 0.01 µM on GPR40 [3] and ~5 µM at GPR120. Also, the Emax at GPR40 [3] (compared to natural free fatty acid ligands, read-out: Emax (efficacy)) is 100%. The “activation of GPR41 (FFAR3)” value on GPR41 (FFAR3) is “did not activate”.
